Legend:
[1] = tested on: P. falciparum 3D7 trophozoites; test: Metabolomic fingerprint profiling LC-MS; assay type: cell-based, Plasmodium falciparum; design: UDP-D-glucose / ADP-D-glucose: unit not given here; settings: for Acetyllysine / N-acetyl-L-ornithine / N-carbamoyl-L-aspartate / NADPH / dAMP / dCMP / dTDP / dTMP / dTTP / dihydroorotate / orotate / DLH / DLS/SDL/SID / PD / PEE / PVNF / 3-phosphoglycerate / ADP-D-glucose / ATP / CDP / D-sedoheptulose-1/7-phosphate / FAD / GMP / NAD+ / NADP+ / Octoluse Bisphosphate / Pyroglutamic acid / UDP-D-glucose / UDP-D-glucuronate / UDP-N-acetyl-glucosamine / UDP / UMP / UTP / a-ketoglutarate / citrate/isocitrate / cytidine / dATP / dGMP/AMP / fumarate / glucose-1/6-phosphate / glycerate / guanine / guanosine / hypoxanthine / indole / inosine / nicotinate / ornithine / phosphoenolpyruvate / pyruvate / ribose-phosphate / sarcosine/alanine / sn-glycerol-3-phosphate / succinate/methylmalonic acid / uridine / xanthosine: S2 Table Metabolomics; for Acetyllysine: metabolite Acetyllysine; for N-acetyl-L-ornithine: metabolite N-acetyl-L-ornithine; for N-carbamoyl-L-aspartate: metabolite N-carbamoyl-L-aspartate; for NADPH: metabolite NADPH; for dAMP: metabolite dAMP; for dCMP: metabolite dCMP; for dTDP: metabolite dTDP; for dTMP: metabolite dTMP; for dTTP: metabolite dTTP; for dihydroorotate: metabolite dihydroorotate; for orotate: metabolite orotate; for DLH: peptide DLH; for DLS/SDL/SID: peptide DLS/SDL/SID; for PD: peptide PD; for PEE: peptide PEE; for PVNF: peptide PVNF; for 3-phosphoglycerate: metabolite 3-phosphoglycerate; for ADP-D-glucose: metabolite ADP-D-glucose; for ATP: metabolite ATP; for CDP: metabolite CDP; for CDP / D-sedoheptulose-1/7-phosphate / GMP / Octoluse Bisphosphate / UDP / UMP / UTP / citrate/isocitrate / dGMP/AMP / fumarate / glucose-1/6-phosphate / glycerate / guanine / guanosine / inosine / pyruvate / sarcosine/alanine / succinate/methylmalonic acid / uridine / xanthosine: change in metabolite level after compound treatment; for D-sedoheptulose-1/7-phosphate: metabolite D-sedoheptulose-1/7-phosphate; for FAD: metabolite FAD; for GMP: metabolite GMP; for NAD+: metabolite NAD+; for NADP+: metabolite NADP+; for Octoluse Bisphosphate: metabolite Octoluse Bisphosphate; for Pyroglutamic acid: metabolite Pyroglutamic acid; for UDP-D-glucose: metabolite UDP-D-glucose; for UDP-D-glucuronate: metabolite UDP-D-glucuronate; for UDP-N-acetyl-glucosamine: metabolite UDP-N-acetyl-glucosamine; for UDP: metabolite UDP; for UMP: metabolite UMP; for UTP: metabolite UTP; for a-ketoglutarate: metabolite a-ketoglutarate; for citrate/isocitrate: metabolite citrate/isocitrate; for cytidine: metabolite cytidine; for dATP: metabolite dATP; for dGMP/AMP: metabolite dGMP/AMP; for fumarate: metabolite fumarate; for glucose-1/6-phosphate: metabolite glucose-1/6-phosphate; for glycerate: metabolite glycerate; for guanine: metabolite guanine; for guanosine: metabolite guanosine; for hypoxanthine: metabolite hypoxanthine; for indole: metabolite indole; for inosine: metabolite inosine; for 2_3-Diphosphoglyceric acid / 4-phosphopantothenate / 6-phospho-D-gluconate / FMN / IMP / Pyrophosphate / Sedoheptoluse bisphosphate / cyclic-AMP / glutathione disulfide / lactate / myo-inositol: metabolite level change after treatment; for nicotinate: metabolite nicotinate; for ornithine: metabolite ornithine; for phosphoenolpyruvate: metabolite phosphoenolpyruvate; for pyruvate: metabolite pyruvate; for ribose-phosphate: metabolite ribose-phosphate; for sarcosine/alanine: metabolite sarcosine/alanine; for sn-glycerol-3-phosphate: metabolite sn-glycerol-3-phosphate; for succinate/methylmalonic acid: metabolite succinate/methylmalonic acid; for uridine: metabolite uridine; for xanthosine: metabolite xanthosine
P. falciparum = test: EC50 listed in S2 Table Metabolomics (used to set the concentration tested); assay type: cell-based; settings: Plasmodium falciparum; EC50 used for Factor_XEC50 in metabolomics; read-out: EC50_nM

SMILES: COc1cccc(NC(=O)[C@H](C(C)C)n2c(=O)[nH]c3ccccc3c2=O)c1 [MMV665878]
- Acetyllysine [1]: -3.834
- N-acetyl-L-ornithine [1]: -2.277
- N-carbamoyl-L-aspartate [1]: -2.026
- NADPH [1]: -0.665
- dAMP [1]: 2.607
- dCMP [1]: 1.538
- dTDP [1]: 2.818
- dTMP [1]: 4.246
- dTTP [1]: 1.03
- dihydroorotate [1]: -1.926
- orotate [1]: 0.2146
- DLH [1]: -4.819
- DLS/SDL/SID [1]: -3.927
- PD [1]: -1.32
- PEE [1]: -2.783
- PVNF [1]: -5.1424
- 3-phosphoglycerate [1]: -0.5747
- ADP-D-glucose [1]: -0.6055
- ATP [1]: -2.891
- CDP [1]: 0.1584
- D-sedoheptulose-1/7-phosphate [1]: -0.5795
- FAD [1]: -1.328
- GMP [1]: -2.538
- NAD+ [1]: 0.9896
- NADP+ [1]: -0.2932
- Octoluse Bisphosphate [1]: -2.487
- Pyroglutamic acid [1]: -0.4358
- UDP-D-glucose [1]: -0.03487
- UDP-D-glucuronate [1]: -0.6105
- UDP-N-acetyl-glucosamine [1]: 0.07778
- UDP [1]: -0.1367
- UMP [1]: 0.1216
- UTP [1]: -1.546
- a-ketoglutarate [1]: -0.5207
- citrate/isocitrate [1]: -1.159
- cytidine [1]: 0.1724
- dATP [1]: -1.5606
- dGMP/AMP [1]: -1.273
- fumarate [1]: 0.3725
- glucose-1/6-phosphate [1]: -0.9191
- glycerate [1]: 0.3692
- guanine [1]: -0.09985
- guanosine [1]: -0.2889
- hypoxanthine [1]: -0.3925
- indole [1]: -0.3292
- inosine [1]: -0.04266
- 2_3-Diphosphoglyceric acid [1]: -1.256
- 4-phosphopantothenate [1]: -0.4545
- 6-phospho-D-gluconate [1]: -0.4297
- FMN [1]: -0.3548
- IMP [1]: -0.5176
- Pyrophosphate [1]: -1.335
- Sedoheptoluse bisphosphate [1]: -0.9263
- cyclic-AMP [1]: -1.127
- glutathione disulfide [1]: -0.2446
- lactate [1]: -1.397
- myo-inositol [1]: -0.3766
- nicotinate [1]: 0.2929
- ornithine [1]: 0.191
- phosphoenolpyruvate [1]: -0.242
- pyruvate [1]: -1.851
- ribose-phosphate [1]: -0.6091
- sarcosine/alanine [1]: -1.666
- sn-glycerol-3-phosphate [1]: 0.02823
- succinate/methylmalonic acid [1]: 0.3592
- uridine [1]: 0.5173
- xanthosine [1]: -1.769
- EC50 (P. falciparum): 139 nM

SMILES: COc1ccccc1CNC(=O)CCn1c(=O)[nH]c2ccccc2c1=O [MMV665916]
- Acetyllysine [1]: 0.3638
- N-acetyl-L-ornithine [1]: 0.3943
- N-carbamoyl-L-aspartate [1]: -0.2097
- NADPH [1]: -0.7222
- dAMP [1]: 0.5335
- dCMP [1]: -0.1283
- dTDP [1]: 0.2837
- dTMP [1]: 0.1911
- dTTP [1]: 0.1028
- dihydroorotate [1]: 0.195
- orotate [1]: 0.1648
- DLH [1]: -0.3906
- DLS/SDL/SID [1]: -0.1223
- PD [1]: 0.1255
- PEE [1]: 0.2968
- PVNF [1]: -0.3118
- 3-phosphoglycerate [1]: 0.2339
- ADP-D-glucose [1]: 0.1724
- ATP [1]: 0.1531
- CDP [1]: 0.2423
- D-sedoheptulose-1/7-phosphate [1]: 0.1783
- FAD [1]: 0.06654
- GMP [1]: -0.759
- NAD+ [1]: 0.08579
- NADP+ [1]: 0.1944
- Octoluse Bisphosphate [1]: 0.5392
- Pyroglutamic acid [1]: -0.1569
- UDP-D-glucose [1]: 0.1671
- UDP-D-glucuronate [1]: 0.1875
- UDP-N-acetyl-glucosamine [1]: 0.2144
- UDP [1]: 0.1783
- UMP [1]: -0.6315
- UTP [1]: 0.2956
- a-ketoglutarate [1]: -0.329
- citrate/isocitrate [1]: -0.5155
- cytidine [1]: -0.1275
- dATP [1]: 0.146
- dGMP/AMP [1]: 0.3579
- fumarate [1]: -0.07198
- glucose-1/6-phosphate [1]: -0.1463
- glycerate [1]: 0.2881
- guanine [1]: -0.1565
- guanosine [1]: -0.3335
- hypoxanthine [1]: -0.2904
- indole [1]: -0.1941
- inosine [1]: -0.04044
- 2_3-Diphosphoglyceric acid [1]: 0.5062
- 4-phosphopantothenate [1]: 0.1361
- 6-phospho-D-gluconate [1]: 0.2552
- FMN [1]: 0.1915
- IMP [1]: 0.3796
- Pyrophosphate [1]: 0.2568
- Sedoheptoluse bisphosphate [1]: 0.5745
- cyclic-AMP [1]: 0.1551
- glutathione disulfide [1]: 0.2989
- lactate [1]: -0.2145
- myo-inositol [1]: 0.9008
- nicotinate [1]: -0.1745
- ornithine [1]: 0.1369
- phosphoenolpyruvate [1]: 0.02242
- pyruvate [1]: -0.2103
- ribose-phosphate [1]: -0.4062
- sarcosine/alanine [1]: 0.2908
- sn-glycerol-3-phosphate [1]: -0.1634
- succinate/methylmalonic acid [1]: -0.1615
- uridine [1]: -0.1737
- xanthosine [1]: -0.4685
- EC50 (P. falciparum): 72.6 nM
